One assay has as its target SARS-CoV-2 Papain-like (PLpro) protease (Severe acute respiratory syndrome coronavirus 2, UniProt P0DTD1). Nature of the assay: SARS-CoV-2 Papain-like (PLpro) protease biochemical enzyme inhibition assay (ubiquitin-fluorophore substrate, Ub-R110).
Conditions: not given
Regarding `C[Si](C)(C)C#CCNC(=O)C(=O)NCc1ccccc1C(=O)NC1(c2ccc3ccccc3c2)CC1` [Example 202], the IC50 (usually the concentration at which inhibition is half-maximal) was over 10000 nM.

The assay is the same for the next values; noted with them: Ub-R110 substrate; run in duplicate; read-out: PLpro IC50.
`CN(C#N)NC(=O)C(=O)NCc1ccccc1C(=O)NC1(c2ccc(F)c3ccccc23)CC1` [Example 124]: the IC50 was in the range of 1000 to 10000 nM.

Regarding `C#C[C@H](C)NC(=O)C(=O)NCc1ccccc1C(=O)NC1(c2cc(F)cc(-c3cnn(C4CC4)c3)c2)CC1` [Example 141], the IC50 lay in the range of 100 to 1000 nM.

As for `C[C@@H](C#Cc1ncccc1C(F)(F)F)NC(=O)C(=O)NCc1ccccc1C(=O)NC1(c2cc(F)cc(-c3cnn(C4CC4)c3)c2)CC1` [Example 142], the IC50 was 100 to 1000 nM. As to `C[C@@H](C#Cc1ncco1)NC(=O)C(=O)NCc1ccccc1C(=O)NC1(c2cc(F)cc(-c3cnn(C4CC4)c3)c2)CC1` [Example 143], the IC50 was in the range of 1000 to 10000 nM.

As to `Cn1cc2cc(C3(NC(=O)c4ccccc4CNC(=O)C(=O)NCC#Cc4ccc(Cl)cc4F)CC3)ccc2n1` [Example 148], the IC50 is under 100 nM. Same read-out and setting: to `CC#CCNC(=O)C(=O)NCc1ccccc1C(=O)NC1(c2cccc3ccccc23)CC1` [Example 150] belongs 1000 to 10000 nM. `C#C[C@@H](C)NC(=O)C(=O)NCc1ccccc1C(=O)NC1(c2cccc3ccccc23)CC1` [Example 157]: the IC50 was 1000 to 10000 nM. As for `O=C(NC/C=C1\CCOC1=O)C(=O)NCc1ccccc1C(=O)NC1(c2ccc3ccccc3c2)CC1` [Example 162], the IC50 was in the range of 100 to 1000 nM. For the compound `C#C[C@H](C)NC(=O)C(=O)NCc1ccccc1C(=O)NC1(c2ccc3ccccc3c2)CC1` [Example 164], the IC50 was 1000 to 10000 nM. On the same count and under the same terms, as for `Cn1cc(C#CCNC(=O)C(=O)NCc2ccccc2C(=O)NC2(c3ccc4ccccc4c3)CC2)cn1` [Example 169], the figure is over 10000 nM; as for `O=C(NCC#Cc1cccnc1)C(=O)NCc1ccccc1C(=O)NC1(c2ccc3ccccc3c2)CC1` [Example 170], 1000 to 10000 nM; as for `N#Cc1ncc(C#CCNC(=O)C(=O)NCc2ccccc2C(=O)NC2(c3ccc4ccccc4c3)CC2)cn1` [Example 182], over 10000 nM. On the same count and under the same terms, to `CCOc1cccnc1C#CC1(NC(=O)C(=O)NCc2ccccc2C(=O)NC2(c3ccc4ccccc4c3)CC2)CC1` [Example 203] belongs over 10000 nM. Same read-out and setting: to `CC(C)[C@@H](C#Cc1ccccn1)NC(=O)C(=O)NCc1ccccc1C(=O)NC1(c2ccc3nn(C)cc3c2)CC1` [Example 204] belongs over 10000 nM; to `CC(C)[C@@H](C#Cc1ncccc1C(F)(F)F)NC(=O)C(=O)NCc1ccccc1C(=O)NC1(c2ccc3nn(C)cc3c2)CC1` [Example 205], over 10000 nM.

As for `CC(C)[C@@H](C#Cc1ccccn1)NC(=O)C(=O)NCc1ccccc1C(=O)NC1(c2ccc3ccccc3c2)CC1` [Example 207], the 50% inhibitory concentration (IC50) was over 10000 nM. On the same count and under the same terms, as for `C[C@@H](C#Cc1ccc(C#N)cc1OC(F)(F)F)NC(=O)C(=O)NCc1ccccc1C(=O)NC1(c2ccc3ccccc3c2)CC1` [Example 208], the figure is over 10000 nM. Take `CN1CCC(n2cc(-c3cc(F)cc(C4(NC(=O)c5ccccc5CNC(=O)C(=O)NCC#Cc5cnc(F)nc5)CC4)c3)cn2)CC1` [Example 256]: the IC50 is under 100 nM. Same read-out and setting: as for `CC(C)Oc1cccnc1C#C[C@H](C)NC(=O)C(=O)NCc1ccccc1C(=O)NC1(c2cc(F)cc(-c3cnn(C4CC4)c3)c2)CC1` [Example 268], the figure is 100 to 1000 nM. Regarding `CC(C)n1nccc1C#CCNC(=O)C(=O)NCc1ccccc1C(=O)NC1(c2cc(F)cc(-c3cnn(C4CC4)c3)c2)CC1` [Example 278], the IC50 was 100 to 1000 nM.

In the case of `CC(C)(O)Cn1cc(-c2cc(F)cc(C3(NC(=O)c4ccccc4CNC(=O)C(=O)NCC#N)CC3)c2)cn1` [Example 282], the IC50 fell in the range of 100 to 1000 nM.

On to `N#CCNC(=O)C(=O)NCc1c(Cl)cccc1C(=O)NC1(c2cc(-c3cnn(C4CC4)c3)cc3ccccc23)CC1` [Example 291], for which the concentration for half-maximal inhibition (IC50) was over 10000 nM.

With `N#CCNC(=O)C(=O)NCc1ccccc1C(=O)NC1(c2ccc(F)c(OC(F)(F)F)c2)CC1` [Example 309], the half-inhibitory concentration (IC50) was in the range of 1000 to 10000 nM. As to `N#CCNC(=O)C(=O)N1Cc2cccc(C(=O)NC3(c4cc(Br)cc5ccccc45)CC3)c2C1` [Example 315], the IC50 lay within 1000 to 10000 nM.

Consider `N#CN1CCC[C@H]1CC(=O)NCc1ccccc1C(=O)NC1(c2cc(Br)cc3ccccc23)CC1` [Example 316], for which the half-maximal inhibitory concentration (IC50) was in the range of 100 to 1000 nM. Consider `N#CCNC(=O)C(=O)NCc1ccccc1C(=O)NC1(c2cc(N3CCOC3=O)cc3ccccc23)CC1` [Example 317], for which the IC50 was under 100 nM. The same measure, in the same setting: as for `C[C@@H](NC(=O)c1ccccc1CNC(=O)C(=O)NCC#N)c1cc(C(F)(F)F)nc2ccccc12` [Example 325], the figure is over 10000 nM; as for `Cn1cc2c(F)c(C3(NC(=O)c4ccccc4CNC(=O)C(=O)NCC#N)CC3)ccc2n1` [Example 332], under 100 nM; as for `C#CCNC(=O)C(=O)NCc1ccccc1C(=O)NC1(c2cc(Cl)c3nn(C4CC4)cc3c2)CC1` [Example 339], under 100 nM. Take `Cn1cc2ccc(C3(NC(=O)c4ccccc4CNC(=O)C(=O)NCC#N)CC3)cc2n1` [Example 340]: the concentration for half-maximal inhibition (IC50) fell in the range of 100 to 1000 nM.

Take `C[C@@H](NC(=O)c1cc(F)cc(F)c1CNC(=O)C(=O)NCC#N)c1cccc2ccccc12` [Example 361]: the IC50 is over 10000 nM. On the same count and under the same terms, to `COC(=O)/C=C/CNC(=O)C(=O)NCc1ncoc1C(=O)N[C@H](C)c1cccc2ccccc12` [Example 364] belongs over 10000 nM; to `C[C@@H](NC(=O)c1ocnc1CNC(=O)C(=O)NCC#N)c1cccc2ccccc12` [Example 365], over 10000 nM. On the same count and under the same terms, as for `N#CCCNC(=O)C(=O)NCCc1ccccc1C(=O)NC1(c2ccc3ccccc3c2)CC1` [Example 368], the figure is over 10000 nM.

In the case of `N#CCNC(=O)C(=O)NCc1ccccc1C(=O)NC1(c2cc(C(F)(F)F)ccc2F)CC1` [Example 371], the half-inhibitory concentration (IC50) lay within 1000 to 10000 nM. Consider `N#CCNC(=O)C(=O)NCCc1ccccc1C(=O)NC1(c2ccc3ccccc3c2)CC1` [Example 372], for which the IC50 is over 10000 nM. Same read-out and setting: to `N#CCNC(=O)C(=O)NCc1ccccc1C(=O)NC1(c2cccc(Br)c2F)CC1` [Example 373] belongs 100 to 1000 nM; to `C#CCNC(=O)C(=O)NCc1ccccc1C(=O)NC1(c2cccc3ncccc23)CC1` [Example 374], under 100 nM.

On to `N#CCNC(=O)C(=O)NCc1ccccc1C(=O)NC1(c2cc(F)cc(C(F)(F)F)c2)CC1` [Example 375], for which the IC50 was 1000 to 10000 nM. `N#CCNC(=O)C(=O)NCc1ccccc1C(=O)NC1(c2cccc(C(F)(F)F)c2F)CC1` [Example 376]: the IC50 fell in the range of 100 to 1000 nM. Turning to `N#CCNC(=O)C(=O)NCc1ccccc1C(=O)NC1(c2cc(C(F)(F)F)ccc2Cl)CC1` [Example 377], the IC50 was 100 to 1000 nM. Same read-out and setting: as for `N#CCNC(=O)C(=O)NCc1ccccc1C(=O)NC1(c2cccc(Cl)c2Cl)CC1` [Example 378], the figure is 100 to 1000 nM; as for `N#CCNC(=O)C(=O)NCc1ccccc1C(=O)NC1(c2cccc(-c3ccc(F)cc3)c2F)CC1` [Example 379], under 100 nM; as for `C#CCNC(=O)C(=O)NCc1ccccc1C(=O)NC1(c2ccc3ncccc3c2)CC1` [Example 388], under 100 nM.

Consider `O=C(NCC#Cc1nccs1)C(=O)NCc1ccccc1C(=O)NC1(c2ccc3ncccc3c2)CC1` [Example 389], for which the IC50 is under 100 nM. Same read-out and setting: to `O=C(NCC#Cc1nccs1)C(=O)NCc1ccccc1C(=O)NC1(c2cccc3nc(C4CC4)ccc23)CC1` [Example 390] belongs under 100 nM.

Values taken from patent US20240327334A1, “Covalent Inhibitors As Antiviral Agents” (Enanta Pharmaceuticals, Inc., priority 2022, published 2024).
